# Laboratory results: publication PMC6344862, “Hexameric assembly of the AAA+ protein McrB is necessary for GTPase activity” (Nucleic Acids Research, 2018)
# B1: McrC (natural protein)
# chain: MEQPVIPVRNIYYMLTYAWGYLQEIKQANLEAIPGNNLLDILGYVLNKGVLQLSRRGLELDYNPNTEIIPGIKGRIEFAKTIRGFHLNHGKTVSTFDMLNEDTLANRIIKSTLAILIKHEKLNSTIRDEARSLYRKLPGISTLHLTPQHFSYLNGGKNTRYYKFVISVCKFIVNNSIPGQNKGHYRFYDFERNEKEMSLLYQKFLYEFCRRELTSANTTRSYLKWDASSISDQSLNLLPRMETDITIRSSEKILIVDAKYYKSIFSRRMGTEKFHSQNLYQLMNYLWSLKPENGENIGGLLIYPHVDTAVKHRYKINGFDIGLCTVNLGQEWPCIHQELLDIFDEYLK
# Tests used:
# McrBΔN [1] = target: T1, McrBΔN (Escherichia coli, UniProt P15005); assay: electron cryomicroscopy 2D class averages, hexamer; format: binding; settings: 1 mM GDPNP, 1 mM MgCl2, pH 7.4
# T1 construct: gene mcrB; C-terminal Gly-Ser-His6 tag (untagged version for SAXS)
# McrBC = target: T2, McrBC (Escherichia coli, UniProt P15005); assay: steady-state intrinsic tryptophan fluorescence; format: binding; settings: 0.5 uM McrB, 0.125 uM McrC, 1 mM nucleotide, 5 mM MgCl2, pH 8, 25 C
# T2 construct: gene mcrB; full-length McrB with C-terminal Gly-Ser-His6 plus untagged McrC, mixed 4:1 or SEC-purified complex; tetradecamer 734 kDa; with Type IV methyl-directed restriction enzyme EcoKMcrBC (5-methylcytosine-specific restriction enzyme subunit McrC)
# McrB [2] = target: T3, McrB (Escherichia coli, UniProt P15005); assay: steady-state intrinsic tryptophan fluorescence; format: binding; settings: 0.5 uM McrB, 1 mM nucleotide, 5 mM MgCl2, pH 8, 25 C
# McrB [3] = target: McrB (Escherichia coli, UniProt P15005, E280Q); assay: SEC-MALS, hexamer with nucleotide; format: binding; settings: 18 uM protein
# McrB [4] = target: McrB (Escherichia coli, UniProt P15005, E280A); assay: SEC-MALS, hexamer with nucleotide; format: binding; settings: 18 uM protein
# McrBΔN [5] = target: T1, McrBΔN; assay: SEC, nucleotide-induced oligomerisation; format: binding; settings: 18 uM protein, MgCl2, pH 8
# McrB [6] = target: T3, McrB; assay: SEC, nucleotide-induced oligomerisation; format: binding; settings: 18 uM protein, MgCl2, pH 8
# McrBΔN [7] = target: T1, McrBΔN; assay: malachite green GTPase; SEC and SEC-MALS oligomerisation; format: biochemical; settings: 1 mM GTP, 15 mM MgCl2, 50 mM KCl, pH 8, 37 C
# McrBΔNC = target: T4, McrBΔNC (Escherichia coli, UniProt P15005); assay: SAXS of nucleotide-dependent tetradecamer; format: binding; settings: 1 mg/ml protein
# T4 construct: gene mcrB; McrB residues 162-460 (without His6 tag for SEC-MALS and SAXS) plus untagged McrC; tetradecamer 500 kDa; with Type IV methyl-directed restriction enzyme EcoKMcrBC (5-methylcytosine-specific restriction enzyme subunit McrC)
# McrBΔN [8] = target: T1, McrBΔN; assay: SAXS of nucleotide-dependent hexamer; format: binding; settings: McrBΔN without His-tag, 1 mg/ml
# [9] = target: McrBΔN^WT (McrBΔN without His6 tag) (Escherichia coli K12) (UniProt P15005); assay: SAXS; 1 mg/ml protein in buffer B100 with GTPγS, 15°C, beamline B21 Diamond; mass by SAXSMoW2
# [10] = target: McrB (full length, C-terminal His6) (Escherichia coli K12) (UniProt P15005); assay: SEC-MALS; Superose 6 10/300, 0.5 ml/min, 10 mM Tris-Cl pH 7.4, 100 mM NaCl, 1 mM MgCl2, 1 mM DTT, 0.1 mM GTP; McrBC and McrBΔNC complexes run at 0.6 mg/ml
# [11] = target: McrBΔN^WT (McrBΔN without His6 tag) (Escherichia coli K12) (UniProt P15005); assay: as above
molecule,measurement,setting,value
Nc1nc2c(ncn2[C@@H]2O[C@H](COP(=O)(O)OP(=O)(O)NP(=O)(O)O)[C@@H](O)[C@H]2O)c(=O)[nH]1 [GDPNP],"electron cryomicroscopy 2D class averages, hexamer",McrBΔN [1],Imaging of McrB or McrBΔN after the addition of GDPNP showed round particles
same,Trp fluorescence increase,McrBC,~ 15%
same,Trp fluorescence increase,McrB [2],~ 20%
Nc1nc2c(ncn2[C@@H]2O[C@H](COP(=O)(O)OP(=O)(O)O)[C@@H](O)[C@H]2O)c(=O)[nH]1 [GDP],"SEC-MALS, hexamer with nucleotide",McrB [3],had a mass comparable to wild type McrB hexamer in presence of GTP or GDP
same,"SEC-MALS, hexamer with nucleotide",McrB [4],had a mass comparable to wild type McrB hexamer in presence of GTP or GDP
same,"SEC, nucleotide-induced oligomerisation",McrBΔN [5],"In presence of GTP or GDP, McrB and McrBΔN eluted as a high molecular mass oligomer"
same,"SEC, nucleotide-induced oligomerisation",McrB [6],"In presence of GTP or GDP, McrB and McrBΔN eluted as a high molecular mass oligomer"
Nc1nc2c(ncn2[C@@H]2O[C@H](COP(=O)(O)OP(=O)(O)OP(=O)(O)O)[C@@H](O)[C@H]2O)c(=O)[nH]1 [GTP],"SEC-MALS, hexamer with nucleotide",McrB [3],had a mass comparable to wild type McrB hexamer in presence of GTP or GDP
same,"SEC-MALS, hexamer with nucleotide",McrB [4],had a mass comparable to wild type McrB hexamer in presence of GTP or GDP
same,Trp fluorescence increase,McrBC; GTP hydrolysed by this complex,~ 15%
same,malachite green GTPase; SEC and SEC-MALS oligomerisation,McrBΔN [7],only a weak GTPase activity for both McrB (Figure 5A) and McrBΔN
same,Trp fluorescence increase,McrB [2]; weak GTPase without McrC,~ 20%
Nc1nc2c(ncn2[C@@H]2O[C@H](COP(=O)(O)OP(=O)(O)OP(O)(O)=S)[C@@H](O)[C@H]2O)c(=O)[nH]1 [GTPγS],SAXS of nucleotide-dependent tetradecamer,McrBΔNC,Good quality data was collected for McrBΔN and McrBΔNC in presence of the non-hydrolysable analogue GTPγS
same,SAXS of nucleotide-dependent hexamer,McrBΔN [8],Good quality data was collected for McrBΔN and McrBΔNC in presence of the non-hydrolysable analogue GTPγS
same,Trp fluorescence increase,McrBC,~ 23%
same,Trp fluorescence increase,McrB [2],~ 30%
B1,copies of McrB in the complex,[9],12
same,copies of McrC in the complex,[9],2
same,copies of McrB in the complex,[10],12
same,copies of McrC in the complex,[10],2
same,copies of McrB in the complex,[11],12
same,copies of McrC in the complex,[11],2
